For one series, the target named is T1, CypA (Homo sapiens, UniProt P62937).
T1 construct: His-tag (TEV-cleavable) (cleaved yes); made in house; host or cells: E. coli C41 BL21(DE3) ('C41 BL21(DH3)' [sic]); plasmid from the Edinburgh Protein Production Facility
Description: Isothermal titration calorimetry (ITC), ester series, direct titration. The settings on record: 25 °C, 50 mM phosphate buffer pH 6.5; single experiments; uncertainties from fit to one-site binding model; n.b. = no binding observed at the maximum concentration tested. On the procedure: The molecular weights of HisCypA and free CypA are 20.893 and 18.070 kDa, respectively. Protein concentration was determined by measuring the absorbance at 280 nm and the extinction coefficients 14440 and 8480 M-1 cm-1, respectively.
Isothermal Titration Calorimetry (ITC)
ITC1 – Ester series: Instrument and experimental setup
All ITC experiments for the ester series compounds were carried out at 25 °C on a MicroCal Auto iTC200 (GE Healthcare) instrument. The buffer used in the titrations of the compounds belonging to the ester series (1 – 12) was 50 mM phosphate buffer, pH 6.5 and the concentration of DMSO was 2% v/v for all the compounds, unless otherwise stated in Table S1. Final compound solutions were heated to 65 °C and/or sonicated prior to the experiment. Each experiment consisted of an initial injection of 0.4 μL followed by nineteen 2 μL injections and in most of cases for these compounds, the “continue injections” protocol was used leaving the cell intact and performing a second series of titrations using the above protocol to achieve saturation. Control experiments were performed, where each compound was titrated into buffer and when small amount of heat was detected due to heat of dilution, it was subtracted when processing the data using a linear fit method. A more detailed setup for each experiment is depicted in Table S6. In all cases the first injection was omitted from the data processing. All data were analysed using the MicroCal PEAQ-ITC […]
(Wiseman constant) is very small, a fixed stoichiometry to 1 was applied during the non-linear regression of […]
the duration of the experiment.

The target in the next series is T2, His-CypA (Homo sapiens, UniProt P62937).
T2 construct: made in house; host or cells: E. coli C41 BL21(DE3) ('C41 BL21(DH3)' [sic]); plasmid from the Edinburgh Protein Production Facility
The experiment in a line: Surface plasmon resonance (SPR) kinetic titration, BIAcore T200. It counts as binding. As for the experimental part: (§1) injection protocol (Fig. S9B). […]
(§2) using the same instrument parameters was performed (Fig. S9A).
(§3) Surface Plasmon Resonance (SPR)
(§4) SPR1 – SPR equipment and reagents
(§5) SPR measurements were performed on a BIAcore T200 instrument (GE Healthcare). Ni2+- nitrilotriacetic acid (NTA) sensor chips, 1-ethyl-3-(3- diaminopropyl) carbodiimide hydrochloride (EDC) and Nhydroxysuccinimide (NHS) were purchased from GE Healthcare.
(§6) SPR2 – Immobilization and covalent stabilizations of His-Cyps
(§7) Pure His-cyclophilins were immobilized and covalently stabilized on the NTA sensor chip according to the protocol described [Wear et al., 2017, FEBS OpenBio], using 200 nM concentrations of each protein, in Running Buffer (PBS, pH 7.4; 0.05% surfactant P20, 2% v/v ethanol; 50 µM EDTA), at 30 µl min-1 with 60 second contact times on the activated NTA surfaces.
(§8) (1 picture or pasted object on this page, not shown here)
(§9) Specific surface protein activity was assayed by passing saturating […]
(§10) SPR3 – Kinetic titration experiments
(§11) Buffer (PBS, pH 7.4, 50 µM mM EDTA; 0.05 % v/v surfactant P20; 2 % v/ v ethanol), were injected over the sensor surface, at 100 µl.min -1 with a 90 s contact time and a 90 s dissociation time. The sensor surface was regenerated between experiments by dissociating any formed complex in running buffer for at least 1,200 seconds. The apparent on-rate (k+) and off-rate (k-) constants and the equilibrium dissociation constant (K d) were calculated from reference corrected sensorgrams by global fitting of a 1:1 binding model, including a mass transport term, using analysis software ( v.2.02, GE Healthcare) provided with the BIAcore T200 […]
(§12) Buffer (PBS, pH 7.4, 50 µM mM EDTA; 0.05 % v/v surfactant P20; 2 % v/v ethanol), were injected over the sensor surface, at 100 µl.min-1 with a 15 s contact time and a 600 s dissociation time. The sensor surface was […]

For another series, the target named is T3, His-CypD (Homo sapiens, UniProt P30405).
T3 construct: made in house; host or cells: E. coli C41 BL21(DE3) ('C41 BL21(DH3)' [sic]); plasmid from the Edinburgh Protein Production Facility
The description is as above. Format: binding. The settings on record: 25 °C, mean ± 1σ from three repeat experiments. As for the experimental part: as §1, §2, §3, §4, §5, §6, §7, §8, §9, §10, §11, §12

In the next series the target is T4, His-CypB (Homo sapiens, UniProt P23284).
T4 construct: made in house; host or cells: E. coli C41 BL21(DE3) ('C41 BL21(DH3)' [sic]); plasmid from the Edinburgh Protein Production Facility
The experiment in a line: biochemical. The following applies: 25 °C, mean ± 1σ from three repeat experiments; read-out: Kd (SPR) CypB. It counts as binding. On the procedure:
as §1, §2, §3, §4, §5, §6, §7
(1 picture or pasted object on this page, not shown here) […]
Buffer (PBS, pH 7.4, 50 µM mM EDTA; 0.05 % v/v surfactant P20; 2 % v/ v ethanol), were injected over the sensor surface, at 100 µl.min -1 with a 90 s contact time and a 90 s dissociation time. […] The apparent on-rate (k+) and off-rate (k-) constants and the equilibrium dissociation constant (K d) were calculated from reference corrected sensorgrams by global fitting of a 1:1 binding model, including a mass transport term, using analysis software ( v.2.02, GE Healthcare) provided with the BIAcore T200 […]

The test system of a further series is MDA-MB-231_NLG cells. Description: cells. It counts as cell-based. The settings on record: 120 hours treatment. As for the experimental part: The tumorigenic, breast, epithelial adenocarcinoma cell lines MDA-MB-231_NLG and the normal, lung fibroblast cell line, IMR90 were cultured as adherent monolayers in DMEM with 10% volume FBS in an atmosphere with 5% CO2 and 95% humidity and were routinely sub-cultured upon reaching 80-90% confluence. MDA-MB-231_NLG cells are a variant of MDA-MB-231 cells, expressing nuclear-restricted green fluorescent protein; they were produced by stable transduction of MDA-MB-231 cells with NucLight Green lentivirus (Essen Bioscience), following the manufacturer’s protocol.
Image-based Cell Viability Assays
Cells were seeded at a density of 500 cells per well in cell culture medium in 384-well cell culture plates and allowed to adhere overnight (about 16 hours), incubated in a humidified atmosphere with 5% CO2.
Subsequently, cell culture medium was refreshed, supplemented with Draq 7 (3µM final concentration) and test compound at the indicated concentrations with three wells being treated for each condition tested. Cells were then returned to the cell culture incubator and imaged with a 10X objective every 3 hours for 120 hours using an IncuCyte ZOOM microscope from Essen Bioscience.
Using the IncuCyte ZOOM software, custom image analysis procedures were developed and applied for each cell line to determine cell confluency, cell number and number of dead cells over the time course of the experiment. Phase contrast was used to determine relative area of each image occupied by cells (confluency), while green nuclear counts were used to determine number of MDA-MB-231_NLG cells and red nuclear counts were used to determine number of dead (Draq7-positive) cells. […]
growth inhibition) being determined by fitting non-linear regression curves to the data and extrapolating the required values using GraphPad Prism 6. Statistical analyses in cell viability assays to compare the effect of compound treatment to treatment with vehicle were performed using GraphPad Prism 6 (2-way ANOVA with Bonferroni correction post hoc).

Read-outs that look alike come from different tables or passages of the source.

T1 sequence (P62937 whole entry): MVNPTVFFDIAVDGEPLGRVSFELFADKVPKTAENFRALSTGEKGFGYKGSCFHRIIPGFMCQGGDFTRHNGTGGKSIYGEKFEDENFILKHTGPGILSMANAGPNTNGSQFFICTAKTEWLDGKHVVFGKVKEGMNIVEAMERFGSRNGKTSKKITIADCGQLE
T3 sequence (P30405 30-207): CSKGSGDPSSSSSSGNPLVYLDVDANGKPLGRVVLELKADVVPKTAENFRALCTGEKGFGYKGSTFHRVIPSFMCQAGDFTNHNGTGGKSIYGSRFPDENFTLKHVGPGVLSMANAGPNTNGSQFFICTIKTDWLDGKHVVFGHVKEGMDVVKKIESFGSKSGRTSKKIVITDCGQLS
T4 sequence (P23284 34-216): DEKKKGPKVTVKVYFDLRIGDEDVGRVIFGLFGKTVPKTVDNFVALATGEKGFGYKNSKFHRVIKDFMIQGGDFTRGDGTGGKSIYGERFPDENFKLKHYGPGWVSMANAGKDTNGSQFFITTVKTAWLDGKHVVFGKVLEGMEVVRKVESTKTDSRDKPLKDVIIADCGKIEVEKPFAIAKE
T2 sequence (P62937 whole entry): as the sequence (P62937 whole entry) above

Take `CCOC(=O)CNC(=O)N(Cc1ccc(N)cc1)C(C)C.Cl` [Compound 3]: the “CypA Kd (ITC)” value on CypA is “n.b and n.b. and inactive”.

Regarding `CCCN(Cc1ccc(N)cc1)C(=O)NCC(=O)OCC` [Compound 4], binding on CypA was characterised by a dissociation constant (Kd) of 266 ± 3 µM.

For the compound `CCOC(=O)CNC(=O)N(CC#N)Cc1ccc(N)cc1.Cl` [Compound 6], at CypA, the “CypA Kd (ITC)” value was “very weak binders” and the affinity, expressed as Kd, was 993 ± 20 µM.

Turning to `CCOC(=O)CNC(=O)N(Cc1ccc(N)cc1)CC1CC1.Cl` [Compound 7], the “CypA Kd (ITC)” value on CypA was “n.b and n.b. and very weak binders”.

Regarding `CCOC(=O)CNC(=O)N(Cc1ccc(N)cc1)C1CCNCC1.Cl.Cl` [Compound 11], the “CypA Kd (ITC)” value at CypA was “n.b and n.b. and inactive”.

For `C#CCN(Cc1ccc(N)cc1)C(=O)NCC(=O)N1CCCC1c1ccccc1Br` (stereo not drawn) [Compound 13], the dissociation constant (Kd) (as a rule, the constant that tells how readily two partners part at equilibrium) on His-CypA (25 °C, mean ± 1σ from three repeat experiments, read-out: Kd (SPR) CypA) was found to be 3.2 ± 1.3 µM; on His-CypD, 0.2 ± 0.1 µM; at His-CypB, 1.4 ± 0.4 µM. In addition, the “cell death (dead cells)” value in the series with MDA-MB-231_NLG cells was “Negligible cell death”. Further, the GI50 (usually the concentration that inhibits growth by half) in the series on MDA-MB-231_NLG cells (Homo sapiens, mean with 95% CI [lower limit, upper limit], three independent experiments, read-out: GI50, growth inhibition) was 5.13 µM.

Consider `Cl.Cn1cc(CN(Cc2ccc(N)cc2)C(=O)NCC(=O)N2CCCC2c2ccccc2Br)nn1` (stereo not drawn) [Compound 14], for which the “GI50, growth inhibition” value in the series with MDA-MB-231_NLG cells (mean with 95% CI [lower limit, upper limit], three independent experiments) was “inactive”.

For the compound `CCOC(=O)Cn1cc(CN(Cc2ccc(N)cc2)C(=O)NCC(=O)N2CCCC2c2ccccc2Br)nn1` (stereo not drawn) [Compound 16], the results for the equilibrium dissociation constant (Kd) on His-CypA, on His-CypD and on His-CypB were 4.3 ± 1 µM, 1 ± 0.4 µM and 1.9 ± 0.9 µM, respectively.

The values above are taken from PMC6335623, “A computationally designed binding mode flip leads to a novel class of potent tri-vector cyclophilin inhibitors” (Chemical Science, 2018).
